Results on four molecules are retold here after US4142046A, “Intermediates for the preparation of 7-acyl-3-(substituted triazolylthiomethyl)cephalosporins” (SmithKline Corporation, priority 1976, dated 1979).

Converted amounts (≈) assume the structure as drawn. Where two headings read alike, the source gives them in different places.

The subject of experiment [1] is Entero. aerog. ATCC 13048. Nature of the experiment: MIC in vitro. Format: cell-based. How it is done:
(§1) The compounds of Formula I have antibacterial activity against both Gram-positive and Gram-negative organisms. Minimum inhibitory concentrations (MIC's) ranged from 0.2 to >200 μg./ml. in in vitro testing. […] Compound numbers corresponding to structures are given in the experimental section.

Experiment [2] concerns Shigella HH 117. Nature of the experiment: MIC in vitro. Format: cell-based. To be noted: for MIC: Shigella, HH117, Shigella HH 117. How it is done:
as §1

The test system of experiment [3] is Serra. marc. ATCC 13880. Put plainly: MIC in vitro. In kind it is cell-based. How it is done: as §1
For experiment [4], the system named is Strep. faecalis HH 34358. Nature of the experiment: MIC in vitro. In kind it is cell-based. The following applies: for MIC: Enterococcus faecalis, HH34358, Strep. faecalis HH 34358. How it is done:
as §1

Experiment [5] has as its system Kleb. pneumo. SK 4200. Put plainly: MIC in vitro. The following applies: Kleb. pneumo. SK 4200; read-out: MIC in vitro. Format: cell-based. How it is done:
as §1

The subject of experiment [6] is E. coli SK 12140. Nature of the experiment: MIC in vitro. Format: cell-based. To be noted: Escherichia coli. How it is done:
as §1

Experiment [7] has as its system Salmonella ATCC 12176. Put plainly: MIC in vitro. Format: cell-based. To be noted: ATCC12176. How it is done: as §1
Experiment [8] has as its system Kleb. pneumo. SK 1200. Put plainly: MIC in vitro. In kind it is cell-based. How it is done:
as §1

Experiment [9] relates to E. coli HH 33779. Put plainly: MIC in vitro. Format: cell-based. The following applies: Escherichia coli, HH33779. How it is done:
as §1

The test system of experiment [10] is Proteus Morgani 179. Nature of the experiment: MIC in vitro. In kind it is cell-based. How it is done:
as §1

For experiment [11], the system named is S. aureus HH 127. Put plainly: MIC in vitro. In kind it is cell-based. The following applies: Staphylococcus aureus. How it is done:
as §1

Experiment [12] relates to S. aureus SK 23390. Nature of the experiment: MIC in vitro. In kind it is cell-based. To be noted: for MIC: Staphylococcus aureus. On the procedure:
as §1

The subject of experiment [13] is S. villaluz. Nature of the experiment: MIC in vitro. The following applies: read-out: MIC in vitro. Format: cell-based. How it is done: as §1
The test system of experiment [14] is Kleb. pneumo. 4200. Nature of the experiment: In vivo mouse protection (ED50). To be noted: for ED50: Mus musculus.
Experiment [15] deals with Pseudo. sp. HH 63. Put plainly: MIC in vitro. Format: cell-based. How it is done:
as §1

The subject of experiment [16] is E. coli 12140. Put plainly: In vivo mouse protection (ED50).
For experiment [17], the system named is Entero. cloacae HH 31254. Nature of the experiment: MIC in vitro. Format: cell-based. The following applies: for MIC: Enterobacter cloacae. On the procedure: as §1
The mark [18] stands for this setting: SK12140, E. coli SK 12140, read-out: MIC in vitro.
[19] abbreviates: Kleb. pneumo. SK 1200, read-out: MIC in vitro.
Setting [20] is: SK23390, S. aureus SK 23390, read-out: MIC in vitro.
Setting [21] is: Escherichia coli, 12140, po, E. coli 12140, p.o.
Where [22] appears, read: Escherichia coli, 12140, sc, E. coli 12140, s.c.

Take `CCOC(=O)c1nn[nH]c1SCC1=C(C(=O)O)N2C(=O)C(NC(=O)[C@H](N)c3ccccc3)[C@H]2SC1` (stereo partly drawn) [II, 7-(D-α-Aminophenylacetamido)-3-(4-carbethoxy-1,2,3-triazol-5-ylthiomethyl)-3-cephem-4-carboxylic acid]: the minimal inhibitory concentration (MIC) was 50 µg/mL (≈ 96.4 µM) in experiment [1]; 13 µg/mL (≈ 25.1 µM) in [2]; > 200 µg/mL in experiment [3]; 100 µg/mL (≈ 193 µM) in [4]; 25 µg/mL (≈ 48.2 µM) in experiment [5]; 25 µg/mL (≈ 48.2 µM) in experiment [6] (setting [18]). The MIC in experiment [7] is 13 µg/mL (≈ 25.1 µM); in [8] (setting [19]), 50 µg/mL (≈ 96.4 µM); in experiment [9], 50 µg/mL (≈ 96.4 µM); in [10], > 200 µg/mL; in [11] (HH127, S. aureus HH 127, read-out: MIC in vitro), 6 µg/mL (≈ 11.6 µM); in experiment [12] (setting [20]), 6 µg/mL (≈ 11.6 µM). Further, in [13], the MIC was 100 µg/mL (≈ 193 µM).
`N[C@@H](C(=O)NC1C(=O)N2C(C(=O)O)=C(CSc3[nH]nnc3C(=O)O)CS[C@H]12)c1ccccc1` (stereo partly drawn) [V, 7-(D-α-Aminophenylacetamido)-3-(4-carboxy-1,2,3-triazol-5-ylthiomethyl)-3-cephem-4-carboxylic acid]: the ED50 in [14] (po, Kleb. pneumo. 4200, p.o.) is > 50 mg/kg; in experiment [14] (sc, Kleb. pneumo. 4200, s.c.), > 50 mg/kg; in experiment [16] (setting [21]) it was > 200 mg/kg; in experiment [16] (setting [22]), 25 mg/kg. The minimal inhibitory concentration (MIC) is 25 µg/mL (≈ 51 µM) in experiment [1]; > 200 µg/mL in experiment [3]; 200 µg/mL (≈ 408 µM) in experiment [4]; 12.5 µg/mL (≈ 25.5 µM) in experiment [6] (SK12140, read-out: MIC in vitro, E. coli SK 12140); 9 µg/mL (≈ 18.3 µM) in experiment [6] (setting [18]); > 200 µg/mL in experiment [15]. Further, the MIC in experiment [8] (setting [19]) was 3.1 µg/mL (≈ 6.32 µM); in experiment [9] it was 25 µg/mL (≈ 51 µM); in experiment [10] it was > 200 µg/mL; in [11] (HH127, read-out: MIC in vitro), 12.5 µg/mL (≈ 25.5 µM); in experiment [12] (setting [20]), 19 µg/mL (≈ 38.7 µM); in [12] (SK23390, read-out: MIC in vitro), 12.5 µg/mL (≈ 25.5 µM). Further, the MIC in [13] is 200 µg/mL (≈ 408 µM). The molecule also registered an MIC in vitro in [8] (Kleb. pneumo. SK 1200) of 4.7 µg/mL (≈ 9.58 µM).
Regarding `CCOC(=O)c1nn[nH]c1SCC1=C(C(=O)O)N2C(=O)C(NC(=O)[C@H](N)c3ccc(O)cc3)[C@H]2SC1` (stereo partly drawn) [I, 7-(D-α-Amino-4-hydroxyphenylacetamido)-3-(4-carbethoxy-1,2,3-triazol-5-ylthiomethyl)-3-cephem-4-carboxylic acid], the minimal inhibitory concentration (MIC) in [2] is 12.5 µg/mL (≈ 23.4 µM); in experiment [3], > 200 µg/mL; in [4], 200 µg/mL (≈ 374 µM); in [17] (HH31254, read-out: MIC in vitro), 12.5 µg/mL (≈ 23.4 µM); in experiment [15] it was > 200 µg/mL; in [7] it was 12.5 µg/mL (≈ 23.4 µM). Also, the minimal inhibitory concentration (MIC) is 25 µg/mL (≈ 46.8 µM) in [9], > 200 µg/mL in experiment [10], 25 µg/mL (≈ 46.8 µM) in experiment [12] (setting [20]) and 200 µg/mL (≈ 374 µM) in experiment [13]. In addition, the MIC in vitro came to 100 µg/mL (≈ 187 µM) in [4] (Strep. faecalis HH 34358) and 13 µg/mL (≈ 24.3 µM) in experiment [12] (S. aureus SK 23390). For the same molecule, the results for the 50% effective dose (ED50) in [16] (setting [21]) and in experiment [16] (setting [22]) were > 200 mg/kg and 100 mg/kg, respectively.
For the molecule `O=C(O)Cc1nc(SCC2=C(C(=O)O)N3C(=O)C(NC(=O)[C@H](O)c4ccccc4)[C@H]3SC2)n[nH]1` (stereo partly drawn) [IX, 7-D-Mandelamido-3-(5-carboxymethyl-1,2,4-triazol-3-ylthiomethyl)-3-cephem-4-carboxylic acid], the ED50 in vivo in experiment [14] (Kleb. pneumo. 4200, s.c.) is < 3 mg/kg. Moreover, the median effective dose (ED50) came out at 71 mg/kg in experiment [14] (po, Kleb. pneumo. 4200, p.o.); 1.5 mg/kg in experiment [14] (sc, Kleb. pneumo. 4200, s.c.); 41 mg/kg in [16] (setting [21]); 1 mg/kg in [16] (setting [22]). In addition, the minimal inhibitory concentration (MIC) in experiment [1] was 6.3 µg/mL (≈ 12.5 µM); in [2], 0.8 µg/mL (≈ 1.58 µM); in experiment [3] it was > 200 µg/mL; in [4] it was 200 µg/mL (≈ 396 µM); in experiment [17] (HH31254, Entero. cloacae HH 31254, read-out: MIC in vitro), 3.1 µg/mL (≈ 6.13 µM); in experiment [5], 1.6 µg/mL (≈ 3.16 µM). For the same molecule, the minimal inhibitory concentration (MIC) in experiment [6] (setting [18]) was 3.1 µg/mL (≈ 6.13 µM); in [15], > 200 µg/mL; in experiment [7] it was 1.6 µg/mL (≈ 3.16 µM); in experiment [8] (read-out: MIC in vitro, Kleb. pneumo. SK 1200) it was 0.4 µg/mL (≈ 0.791 µM); in [9], 3.1 µg/mL (≈ 6.13 µM); in experiment [10] it was 200 µg/mL (≈ 396 µM). Also, the minimum inhibitory concentration (MIC) was found to be 3.1 µg/mL (≈ 6.13 µM) in experiment [11] (HH127, read-out: MIC in vitro) and 1.6 µg/mL (≈ 3.16 µM) in experiment [12] (setting [20]). For the same molecule, the MIC in vitro in experiment [2] (Shigella HH 117) turned out to be 1.6 µg/mL (≈ 3.16 µM); in [3], 200 µg/mL (≈ 396 µM); in experiment [17] (Entero. cloacae HH 31254) it was 1.6 µg/mL (≈ 3.16 µM); in [8] (Kleb. pneumo. SK 1200) it was 0.2 µg/mL (≈ 0.396 µM).
